In a melting point compilation (Tetko et al.; mined from patent text by program, amines drawn as free bases though some values may be those of a salt):

melting point [°C] | SMILES
257 | N#Cc1c(N2CCN(C(=O)c3cccs3)CC2)c2ccsc2n(Cc2ccccc2)c1=O
223 | c1ccc2sc3cc4oc5ccccc5sc4cc3oc2c1
177 to 179 | O=C1NC(=O)N2C(c3ccccc3)SC[C@@H]12 (stereo partly specified)
> 300 | Cn1ncc2c1-c1c(Cc3ccccc3)sc(C(=O)O)c1CC2
79 to 81 | O=Cc1ccccc1Oc1ccc(C(F)(F)F)cc1[N+](=O)[O-]
128 to 130 | Clc1cccc(Oc2ccc(OCc3cc(C4CC4)no3)cc2)n1
225 to 227 | O=C1NCc2c(Oc3ccccc3)cccc2N1c1ccccc1
113 to 115 | O=C(c1ccc(F)cc1)N1CCC[C@H](c2nc(-c3ccncc3)no2)C1
148 | N#CC(=NOS(=O)(=O)c1ccc(O)cc1)c1ccccc1
230 to 233 | Cc1cc(-c2ccc(Cl)cc2)nnc1Cl
173 to 174 | COc1ccc(-c2nc(S(=O)(=O)CC(F)(F)F)[nH]c2-c2ccc(OC)cc2)cc1
172 to 174 | COc1cccc2c1C(C)(C)CC(O)(C(F)(F)F)C2Nc1cccc2c1cnn2C (stereo unspecified)
133 to 136 | Cc1ccc(Oc2nc3nc(C)cc(C)n3n2)c(C)c1
124 to 127 | O=C(O)CCc1ccc(OCc2nc(-c3ccccc3)c(-c3ccccc3)o2)cc1
20 | O=C(O[C@@H]1CC[C@H]1Cl)c1ccccc1 (relative stereo)
241 to 242 | Nc1cc(-c2ccnc3c(C(=O)c4cccs4)cnn23)ccc1F
182 to 183 | O=C(O)CCc1cc(OCCCc2cn(-c3ccc(C(F)(F)F)cn3)nc2C2CCCCC2)nn1-c1ccccc1
135 | COC(=O)CC1c2ccc(Cl)cc2NC(=O)C1[N+](=O)[O-] (stereo unspecified)
280 | Nc1cc(-n2cc(C(=O)O)c(=O)c3cc(F)c(F)c(Cl)c32)ncc1F
161 to 162 | COc1ccc(S(=O)(=O)NCc2ccc(O)cc2)cc1

Further lines, the molecule ahead of its results:

SMILES | melting point [°C]
CC(c1cc(C(C)(C)C#N)cc(C(C)(C)C#N)c1)n1ccnc1 (stereo unspecified) | 77 to 80
O=[N+]([O-])c1cc(C2=NOC(c3cc(Cl)cc(Cl)c3)(C(F)(F)F)C2)ccc1-n1cncn1 (stereo unspecified) | 64 to 72
CCc1nn(C2CCCC2)c2cc(C(=O)Nc3c(Cl)ncnc3Cl)ccc12 | 171 to 172
CC(C)(C)OC(=O)[C@H](CCC(=O)N1CCC2(CCN(Cc3ccccc3)CC2)CC1)NS(=O)(=O)c1ccccc1 | 134 to 136
N#CCCN1CCN(C(c2ccccc2)c2ccccn2)CC1 (stereo unspecified) | 114 to 116
Cn1nnnc1SCCCSc1nnnn1C | 142 to 144
Cc1nc(N2CCCC2)nc(C)c1-c1cccc2c1OC[C@H]2Nc1ccc2c(c1)OC[C@H]2CC(=O)O | 169
CC(C)(C)N(CC(O)CONC(=O)NC1CCCCC1)C(=O)NC1CCCCC1 (stereo unspecified) | 151 to 152
COc1ccc2c(CC#N)c[nH]c2c1 | 100
COCC(O)c1cccc(S(N)(=O)=O)c1 (stereo unspecified) | 109
CC(=O)N1CCN(c2ccc(NS(C)(=O)=O)cc2)CC1 | 165 to 167
CN1CCN(CC2CCN(c3ccc(Nc4ncc5ccc(-c6cccc(S(=O)(=O)NC(C)(C)C)c6)n5n4)cc3)CC2)CC1 | 233 to 235
O=C(CS(=O)c1cccs1)C12CC3CC(CC(C3)C1)C2 (stereo unspecified) | 114 to 116
O=C1NCN(c2ccccc2)C12CCN(CCCn1c(=O)[nH]c3ccccc31)CC2 | 228
CC1=Nc2c(C)nn(C)c2C2=NC(C)CN12 (stereo unspecified) | 169 to 172
Oc1ccc2c(c1)CC(O)C2 (stereo unspecified) | 112 to 115
CC(C)(C)OC(=O)NC(=S)NC(=O)OC(C)(C)C | 124 to 127
CCc1cc(=O)c(C(N)=O)c(CC)[nH]1 | 254
Clc1ncc(Cl)n2ccnc12 | 102
CCOC(=O)C1=C(C)Nc2ccnc(OC(C)C)c2C1c1cccc2c1OCO2 (stereo unspecified) | 156 to 158
COc1ccc2c(c1)CCC1CCN(C)C(=O)C(CC(C)=O)=C21 (stereo unspecified) | 190 to 192
